≈ marks a conversion by molar mass, not a printed value.
Legend:
H37Rv = experiment: MIC H37Rv (Table E1, Additional BTO Activity Data); assay type: cell-based; settings: Mycobacterium tuberculosis
[1] = MP MTT % viable (Table E1); settings: MP (so in the source)
OFX-R = experiment: MIC OFX-R (Table E1); assay type: cell-based
RMP-R = experiment: MIC RMP-R (Table E1); assay type: cell-based
INH-r = experiment: MIC INH-r (Table E1); assay type: cell-based

SMILES | MIC (H37Rv) [µg/mL] | viability at 0.01 ug/ml [1] [%] | viability at 0.1 ug/ml [1] [%] | viability at 1 ug/ml [1] [%] | MIC (OFX-R) [µg/mL] | MIC (RMP-R) [µg/mL] | MIC (INH-r) [µg/mL]
CN(Cc1ccccn1)c1n[n+]([O-])c2cc3c(cc2[n+]1[O-])CCC3 [Cmpd 2] | 1 (≈ 3.09 µM) | – | – | – | – | – | –
CN(c1n[n+]([O-])c2cc3c(cc2[n+]1[O-])CCC3)C1(c2ccc(F)cc2)CC1 [Cmpd 4] | 4.6 (≈ 12.6 µM) | – | – | – | – | – | –
CC(C)(Nc1n[n+]([O-])c2cc3c(cc2[n+]1[O-])CCC3)c1ccc(F)cc1 [Cmpd 5] | 4.4 (≈ 12.4 µM) | – | – | – | – | – | –
CCNc1n[n+]([O-])c2c(Cl)c(OC)ccc2[n+]1[O-] [Cmpd 6] | 0.4 (≈ 1.48 µM) | – | – | – | – | – | –
[O-][n+]1nc(NC2(c3ccc(F)cc3)CC2)[n+]([O-])c2cc3c(cc21)CCC3 [Cmpd 7] | 17.6 (≈ 49.9 µM) | – | – | – | – | – | –
COc1cccc(C2CCN(c3n[n+]([O-])c4cc5c(cc4[n+]3[O-])CCC5(C)C)C2)c1OC (centres unmarked) [Cmpd 8] | 0.7 (≈ 1.6 µM) | – | – | – | – | – | –
CC1(C)CCc2cc3c(cc21)[n+]([O-])nc(N1CCCC1)[n+]3[O-] [Cmpd 9] | 0.5 (≈ 1.66 µM) | – | – | – | – | – | –
[O-][n+]1nc(N2CC3CCCC3C2)[n+]([O-])c2cc3c(cc21)CCC3 (centres unmarked) [Cmpd 10] | 0.391 (≈ 1.25 µM) | 103 | 94 | 107 | 0.195 (≈ 0.624 µM) | 0.098 (≈ 0.314 µM) | 0.391 (≈ 1.25 µM)
CN(Cc1ccc(C(F)(F)F)cc1)c1n[n+]([O-])c2cc3c(cc2[n+]1[O-])CCC3 [Cmpd 11] | 0.098 (≈ 0.251 µM) | 113 | 108 | 104 | 0.024 (≈ 0.0615 µM) | 0.024 (≈ 0.0615 µM) | 0.195 (≈ 0.5 µM)
COc1ccc(CN(C)c2n[n+]([O-])c3cc4c(cc3[n+]2[O-])CCC4)cc1 [Cmpd 12] | 0.391 (≈ 1.11 µM) | 121 | 94 | 88 | 0.195 (≈ 0.553 µM) | 0.098 (≈ 0.278 µM) | 0.098 (≈ 0.278 µM)
[O-][n+]1nc(N2CCC(c3ccccc3F)C2)[n+]([O-])c2cc3c(cc21)CCC3 (centres unmarked) [Cmpd 13] | 0.098 (≈ 0.267 µM) | 161 | 123 | 102 | 0.024 (≈ 0.0655 µM) | 0.049 (≈ 0.134 µM) | 0.098 (≈ 0.267 µM)
